# Results published in the OPERA property sets (Mansouri et al. 2018).
# Details: not given
SMILES,melting point,log10 vapour pressure (mmHg),boiling point,log10 Henry constant (atm·m³/mol),ready biodegradability,log10 Koc (L/kg),log10 Koa,log10 biodegradation half-life (days)
CC[C@H](C)C(=O)O[C@H]1CCC=C2C=C[C@H](C)[C@H](CC[C@@H]3C[C@@H](O)CC(=O)O3)[C@H]21,152 °C,,,,,,,
CCCCCCC(=O)CCCCC,10 °C,,,,,,,
CCC(Nc1ncnc(C)c1Cl)c1ccc(OC(F)F)cc1 (stereo not given),47.3 °C,-5.62,,,,,,
CCP(CC)CC,-88 °C,,129 °C,,,,,
O=C(O)c1ccccc1C(=O)Nc1ccc(S(=O)(=O)Nc2nccs2)cc1,273 °C,,,,,,,
CC(=O)CF,,1.8,77 °C,,,,,
Nc1ccc(N)c2c1C(=O)c1cccc([N+](=O)[O-])c1C2=O,257 °C,,,,,,,
IC1CCCC1,,,166 °C,,,,,
C1=CCSC1,,,122 °C,,,,,
CC(=O)c1ccccc1[N+](=O)[O-],28.5 °C,,,,,,,
CC(C)C(O)(c1ccc(OC(F)(F)F)cc1)c1cncnc1 (stereo not given),95 °C,-6.44,264 °C,,,,,
CC(=O)[C@@]1(O)CC[C@H]2[C@@H]3C[C@H](C)C4=CC(=O)C=C[C@]4(C)[C@@]3(F)[C@@H](O)C[C@@]21C,297 °C,,,,,,,
OB(c1ccccc1)c1ccccc1,57.5 °C,,,,,,,
CC(C)c1cc(Oc2ccccc2)cc(C(C)C)c1NC(=S)NC(C)(C)C,146 °C,,,,,,,
C/C(=C(\CCOC(=O)c1ccccc1)SS/C(CCOC(=O)c1ccccc1)=C(/C)N(C=O)Cc1cnc(C)nc1N)N(C=O)Cc1cnc(C)nc1N,146 °C,,,,,,,
FC(F)(F)C(Cl)Cl,-107 °C,2.86,27 °C,-1.59,not readily biodegradable,,,
CC(=O)CC(c1ccccc1)c1c(O)c2ccccc2oc1=O (stereo not given),,-6.94,,,,2.96,,
CNC(=O)Oc1cc(C)cc(C(C)C)c1,87 °C,-4.52,,,,2.48,,
CC1(C)[C@H](C=C(Cl)Cl)[C@H]1C(=O)OCc1cccc(Oc2ccccc2)c1,,,,,not readily biodegradable,,,
Cn1ccc(=O)n(C)c1=O,120 °C,-2.26,,,,,,
CC(=O)Oc1cc(C)c(OC(C)=O)c2ccccc12,113 °C,,,,,,,
Clc1ccnc2ccccc12,34.5 °C,,262 °C,,,,,
ClCc1ccc2c(c1)OCO2,20.5 °C,,,,,,,
Cc1ccc(C(C)c2ccc(C)cc2)cc1,,,298 °C,,,,,
COC1=C(OC)C(=O)C(C)=CC1=O,59.5 °C,,,,,,,
CCCCCCC/C=C\C(=O)O,12 °C,,,,,,,
COc1ccccc1OC(=O)c1ccccc1,57.5 °C,,,,,,,

SMILES,melting point,log10 vapour pressure (mmHg),boiling point,log10 Henry constant (atm·m³/mol),ready biodegradability,log10 Koc (L/kg),log10 Koa,log10 biodegradation half-life (days)
CC12CCC(CC1)C(C)(C)O2,1.5 °C,0.279,176 °C,,,,,
C=CC(F)(F)Br,,,42 °C,,,,,
CC(=C(CCO)SSC(CCO)=C(C)N(C=O)Cc1cnc(C)nc1N)N(C=O)Cc1cnc(C)nc1N,177 °C,,,,,,,
C=CCO,-129 °C,1.42,97 °C,-5.3,readily biodegradable,,,
Nc1c(Cl)cc([N+](=O)[O-])cc1Cl,191 °C,-5.92,,,not readily biodegradable,3,,
CC(C)CCSCCC(C)C,-74.6 °C,-0.497,211 °C,,,,,
CCCCCCCCCC(=O)CCCCCCCCC,65.5 °C,,,,,,,
C=CCCCCCCCCCCCCCC,4.1 °C,-2.58,285 °C,,readily biodegradable,,,
O=C1c2ccccc2-c2ccc3c4ccc5c6c(ccc(c7ccc1c2c73)c64)C(=O)c1ccccc1-5,492 °C,,,,,,,
CCc1nc(CC)nc(NS(=O)(=O)c2ccc(N)cc2)n1,187 °C,,,,not readily biodegradable,,,
CC(C)OC(OC(C)C)OC(C)C,,,167 °C,,,,,
COc1ccccc1-c1ccccc1,29 °C,,274 °C,,,,,
O=C(c1cccs1)c1cccs1,90 °C,,326 °C,,,,,
ClC(Cl)(Cl)C(Cl)(Cl)Cl,187 °C,-0.678,,-2.41,not readily biodegradable,,4.47,
CC(C)COCC(C)C,,1.19,123 °C,,,,3.4,
C=C(C(=O)O)c1ccccc1,106 °C,,,,readily biodegradable,,,
SC1=NCCCN1,211 °C,,,,,,,
CC(C)(N)c1ccccc1,,,196 °C,,,,,
Cc1cccc(NC=O)c1,,,290 °C,,,,,
CCOC(=O)C1CCC1,,,159 °C,,,,,
CCCC(=O)Nc1ccccc1,97 °C,,,,,1.71,,
Nc1ccc2ccc3cccc4ccc1c2c34,116 °C,,,,,,,
CC(C)(C)c1cccc(C(C)(C)C)n1,2.2 °C,,,,,,,
CC(CNC(=O)c1ccccc1)C(=O)OCC(=O)[C@@]12OC(C)(C)O[C@@H]1C[C@H]1[C@@H]3CCC4=CC(=O)C=C[C@]4(C)[C@@]3(F)[C@@H](O)C[C@@]12C (stereo not given in full),205 °C,,,,,,,
C1OCC2(CO1)COCOC2,48.3 °C,,,,,,,
COC(=O)c1ccccc1O,-8 °C,-1.46,223 °C,,,,,
O=C(O)CCCCBr,39 °C,,,,,,,

SMILES,melting point,log10 vapour pressure (mmHg),boiling point,log10 Henry constant (atm·m³/mol),ready biodegradability,log10 Koc (L/kg),log10 Koa,log10 biodegradation half-life (days)
O=C(O)c1cc(I)cc(I)c1O,236 °C,,,,,,,
ClC(Br)(Br)Br,55 °C,,158 °C,,,,,
CCOc1cc(OCC)c(C(=O)CCC(=O)O)cc1OCC,150 °C,,,,,,,
C[C@]12CC[C@H]3[C@@H](CCC4=CC(=O)CC[C@@]43C)[C@@H]1CC[C@@H]2O,155 °C,,,,,,,
O=NN1CCCCC1,,,219 °C,,,,,
CC1CC1(C)C (stereo not given),-138 °C,,54 °C,,,,,
CC(C)CC(C)C,-120 °C,1.9,80.4 °C,,,,,1.68
O=S1OCCO1,-11 °C,,173 °C,,,,,
COCCOC(C)=O,-70 °C,0.301,143 °C,,readily biodegradable,,,
CC(C)(C)c1ccc2cc3ccccc3cc2c1,147 °C,-6.19,,,,,,
CCN(CC)CCOC(=O)c1ccc(N)cc1,61 °C,,,,,,,
CCCCC#CCCCCC,-74.1 °C,,198 °C,,,,,
O=C(O)/C=C/Cl,82 °C,,,,,,,
NC(=O)Nc1ccccc1,147 °C,,238 °C,,not readily biodegradable,1.35,,
CCc1nccnc1CC,,,181 °C,,,,,
BrCBr,-52.5 °C,1.65,97 °C,-3.09,,,3.07,
CCc1ccc(CC)cc1,-42.8 °C,0.0253,184 °C,,not readily biodegradable,,,
COc1ccc2ncccc2c1,26.5 °C,,306 °C,,,,,
O=S(=O)(Cl)c1ccc2ccccc2c1,81 °C,,,,,,,
CCc1ccc2ccccc2c1,,-1.5,258 °C,-3.27,,3.76,,
COc1ccc(CCC(C)=O)cc1,8 °C,,,,,,,
O=C1CC(c2ccccc2)Oc2ccccc21 (stereo not given),77 °C,,,,,,,
CCCC(=O)C(C)C,,,135 °C,,,,,
NS(=O)(=O)c1ccc(SCCCO)cc1,117 °C,,,,,,,
CCCOP(=O)(OCCC)OCCC,,,252 °C,-6.17,,,,
CCCCCCCCOC(=O)CCCCCC,-22.5 °C,,290 °C,,,,,
Cc1ccccc1N=C=O,,,185 °C,,,,,

SMILES,melting point,log10 vapour pressure (mmHg),boiling point,log10 Henry constant (atm·m³/mol),ready biodegradability,log10 Koc (L/kg),log10 Koa,log10 biodegradation half-life (days)
C[C@@H]1O[C@@H]1P(=O)(O)O,94 °C,,,,,,,
CCCCOCC,-124 °C,1.71,92.3 °C,,,,,
Cc1ccccc1NCCO,,,286 °C,,,,,
Cc1ccccc1,-94.9 °C,1.45,111 °C,-2.18,readily biodegradable,,,0.301
CCCC(C)C(C)(C)CC (stereo not given),,,162 °C,,,,,
O=C1NC(=O)c2c(Cl)c(Cl)c(Cl)c(Cl)c21,,,,,not readily biodegradable,,,
COC1=C(OC)C(=O)C(C)=C(C)C1=O,62.5 °C,,,,,,,
C=CC(=O)Oc1c(Br)cc(Cl)c2cccnc12,100 °C,,,,,,,
CCCCCCCCCCCC#N,4 °C,-2.63,277 °C,,,,,
CCCCNC(=S)NCCCC,64 °C,,,,,,,
C1CC2CCCC2C1 (stereo not given),,,139 °C,,,,,
C[C@H](N)Cc1ccccc1,,,203 °C,,,,,
CNC[C@H](O)c1ccccc1,44 °C,,,,,,,
C=C1C=CC(C(C)C)CC1 (stereo not given),,0.2,172 °C,,,,,
CC(=O)OCCBr,-13.8 °C,,162 °C,,,,,
CC(C)NCC(O)c1cc(O)cc(O)c1 (stereo not given),100 °C,,,,,,,
Oc1cccc(Cl)c1Cl,58 °C,-1.24,206 °C,,not readily biodegradable,2.66,,
COC(F)(F)C(F)(F)C(F)(F)F,,2.75,,,,,,
Cc1cccc(C=O)c1,,,199 °C,,,,,
C=Cc1ccc(C)cc1,-34.1 °C,0.258,173 °C,,,,,
O=Cc1cc2c(cc1[N+](=O)[O-])OCO2,93.5 °C,,,,,,,
CCCCCCCCCCF,-35 °C,-0.203,186 °C,,,,,
CCOP(=O)(SC(C)CC)SC(C)CC (stereo not given),,-3.05,,,,,,
CCOCCOC(=O)C=Cc1ccc(OC)cc1,-25 °C,,,,,,,

# Same assay, conditions: fish
SMILES,log10 biotransformation half-life (days),log10 BCF
C=CCCCCCCCCCCCCCC,1.67,
ClC(Cl)(Cl)C(Cl)(Cl)Cl,0.76,2.71
CCc1ccc(CC)cc1,-0.01,2.68
Cc1ccccc1,,0.92
Oc1cccc(Cl)c1Cl,,1.13
C=Cc1ccc(C)cc1,,1.5
